Test results published in patent publication US7071180B2, “Certain arylaliphatic and heteroaryl-aliphatic piperazinyl pyrazines and their use in the treatment of serotonin-related diseases” (Biovitrum AB, priority 1999, dated 2006).
Counter-ions that a name gives are not always drawn.

| SMILES | melting point |
| --- | --- |
| c1cnc2ccc(COc3nccnc3N3CCNCC3)cc2c1 (as salt: fumarate) [Example 213, 3-(1-Piperazinyl)-2-pyrazinyl 6-quinolinylmethyl ether] | 207 to 209 °C |
| c1ccc(OCCOc2nc3ccccc3nc2N2CCNCC2)cc1 (as salt: hydrochloride) [Example 3, 2-(2-Phenoxyethoxy)-3-(1-piperazinyl)quinoxaline] | 123 to 126 °C |
| Cc1nc2cc(OCCOc3nccnc3N3CCNCC3)ccc2s1 (as salt: hydrochloride) [Example 143, 2-Methyl-5-(2-{[3-(1-piperazinyl)-2-pyrazinyl]oxy}ethoxy)-1,3-benzothiazole] | 188 to 190 °C |
| c1cncc(OCCOc2nccnc2N2CCNCC2)c1 (as salt: hydrochloride) [Example 150, 2-(3-Pyridyloxy)ethyl 3-(1-piperazinyl)-2-pyrazinyl ether] | 170 to 175 °C |
| c1cc(OCCOc2nccnc2N2CCNCC2)ccn1 (as salt: hydrochloride) [Example 151, 2-(4-Pyridyloxy)ethyl 3-(1-piperazinyl)-2-pyrazinyl ether] | 170 °C (dec.) |
| Cc1ccc(OCCOc2nccnc2N2CCNCC2)cn1 (as salt: hydrochloride) [Example 153, 2-(6-Methyl-3-pyridyloxy)ethyl 3-(1-piperazinyl)-2-pyrazinyl ether] | 157 °C (dec.) |
| Cc1ncccc1OCCOc1nccnc1N1CCNCC1 (as salt: hydrochloride) [Example 154, 2-(2-Methyl-3-pyridyloxy)ethyl 3-(1-piperazinyl)-2-pyrazinyl ether] | 50 °C (dec.) |
| c1cnc(N2CCNCC2)c(OCCOc2ccsc2)n1 (as salt: hydrochloride) [Example 157, 2-(3-Thienyloxy)ethyl 3-(1-piperazinyl)-2-pyrazinyl ether] | 75 to 85 °C |
| Nc1cc(OCCOc2nccnc2N2CCNCC2)c2ccccc2n1 (as salt: hydrochloride) [Example 160, 4-(2-{[3-(1-piperazinyl)-2-pyrazinyl]oxy}ethoxy)-2-quinolinamine] | 156 °C (dec.) |
| C[C@@H]1CNCCN1c1nccnc1OCCOc1cccnc1 (as salt: hydrochloride) [Example 173, (2R)-Methyl-1-{3-[2-(3-pyridinyloxy)ethoxy]-2-pyrazinyl}piperazine] | 180 to 183 °C |
| CC1CNCCN1c1nc2ccccc2nc1OCCOc1cccc2c1OCO2 (stereo not drawn) (as salt: hydrochloride) [Example 182, 2-[2-(1,3-Benzodioxol-4-yloxy)ethoxy]-3-(2-methyl-1-piperazinyl)quinoxaline] | 133 to 138 °C |
| Cc1nc(OCCOc2ccccc2)c(N2CCNCC2)nc1C (as salt: hydrochloride) [Example 183, 5,6-Dimethyl-2-(2-phenoxyethoxy)-3-(1-piperazinyl)pyrazine] | 138 to 140 °C |
| c1ccc(OCCOc2cccnc2N2CCNCC2)cc1 (as salt: hydrochloride) [Example 185, 1-[3-(2-Phenoxyethoxy)-2-pyridinyl]piperazine] | 91 to 120 °C |
| Fc1cccc(OCCOc2nccnc2N2CCNCC2)c1 (as salt: maleate) [Example 101, 2-[2-(3-Fluorophenoxy)ethoxy]-3-(1-piperazinyl)pyrazine] | 141 to 143 °C |
| OCc1cccc(OCCOc2nccnc2N2CCNCC2)c1 (as salt: maleate) [Example 108, [3-(2-{[3-(1-piperazinyl)-2-pyrazinyl]oxy}ethoxy)phenyl]methanol] | 123.2 to 123.5 °C |
| COCc1cccc(OCCOc2nccnc2N2CCNCC2)c1 (as salt: maleate) [Example 109, 2-{2-[3-(Methoxymethyl)phenoxy]ethoxy}-3-(1-piperazinyl)pyrazine] | 114 to 115 °C |
| NC(=O)c1cccc(OCCOc2nccnc2N2CCNCC2)c1 (as salt: maleate) [Example 110, 3-(2-{[3-(1-piperazinyl)-2-pyrazinyl]oxy}ethoxy)benzamide] | 134 to 137 °C |
| c1ccc(Nc2ccc(OCCOc3nccnc3N3CCNCC3)cc2)cc1 (as salt: maleate) [Example 111, N-Phenyl-4-(2-{[3-(1-piperazinyl)-2-pyrazinyl]oxy}ethoxy)aniline] | 132 to 133 °C |

Now from value to compound:

| melting point | SMILES |
| --- | --- |
| 146 to 146.5 °C | c1ccc(OCCCOc2nccnc2N2CCNCC2)cc1 (as salt: hydrochloride) [Example 90, 3-(Phenoxy)propyl 3-(1-piperazinyl)-2-pyrazinyl ether] |
| 129 to 131 °C | c1ccc(OCCCCOc2nccnc2N2CCNCC2)cc1 (as salt: hydrochloride) [Example 98, 4-(Phenoxy)butyl 3-(1-piperazinyl)-2-pyrazinyl ether] |
| 130 to 136 °C | c1cnc(N2CCNCC2)c(OCC2CCCO2)n1 (stereo not drawn) (as salt: hydrochloride) [Example 124, 2-(1-Piperazinyl)-3-(tetrahydro-2-furanylmethoxy)pyrazine] |
| 119 °C (dec.) | CN1CC(COc2nccnc2N2CCNCC2)Oc2ccccc21 (stereo not drawn) (as salt: hydrochloride) [Example 131, 2-(4-Methyl-3,4-dihydro-2H-1,4-benzoxazin-2-ylmethoxy)-3-(1-piperazinyl)-pyrazine] |
| 170 to 175 °C | c1ccc2c(c1)CCC(COc1nccnc1N1CCNCC1)O2 (stereo not drawn) (as salt: hydrochloride) [Example 133, 2-(3,4-Dihydro-2H-chromen-2-ylmethoxy)-3-(1-piperazinyl)pyrazine] |
| 160 °C (dec.) | c1ccc2c(c1)OC[C@@H](COc1nccnc1N1CCNCC1)O2 (as salt: hydrochloride) [Example 148, 2-[(2S)-2,3-Dihydro-1,4-benzodioxin-2-ylmethoxy]-3-(1-piperazinyl)pyrazine] |
| 160 to 167 °C | CN1CCN(c2nccnc2OCC2COc3ccccc3O2)CC1 (stereo not drawn) (as salt: hydrochloride) [Example 169, 2,3-Dihydro-1,4-benzodioxin-2-ylmethyl 3-(4-methyl-1-piperazinyl)-2-pyrazinyl ether] |
| 158 to 160 °C | c1cnc(N2CCNCC2)c(OCCOc2ccc3c(c2)OCCO3)n1 (as salt: hydrochloride) [Example 210, 2-[2-(2,3-Dihydro-1,4-benzodioxin-6-yloxy)ethoxy]-3-(1-piperazinyl)pyrazine] |
| 118 to 120 °C | c1coc(COc2nccnc2N2CCNCC2)c1 (as salt: maleate) [Example 2, 2-(2-Furylmethoxy)-3-(1-piperazinyl)pyrazine] |
| 151 to 152 °C | Cc1ccccc1OCCOc1nccnc1N1CCNCC1 (as salt: maleate) [Example 93, 2-(2-Methylphenoxy)ethyl 3-(1-piperazinyl)-2-pyrazinyl ether] |
| 171 to 173 °C | Fc1ccccc1OCCOc1nccnc1N1CCNCC1 (as salt: maleate) [Example 95, 2-(2-Fluorophenoxy)ethyl 3-(1-piperazinyl)-2-pyrazinyl ether] |
| 165 to 166 °C | N#Cc1ccccc1OCCOc1nccnc1N1CCNCC1 (as salt: maleate) [Example 96, 2-(2-Cyanophenoxy)ethyl 3-(1-piperazinyl)-2-pyrazinyl ether] |
